# Molecular target: T1, recombinant human KLK5 (Homo sapiens, UniProt Q9Y337)
# T1 construct: purchased Novoprotein or R&D Systems C415 or 1108-SE
# T1 sequence (Q9Y337 23-293): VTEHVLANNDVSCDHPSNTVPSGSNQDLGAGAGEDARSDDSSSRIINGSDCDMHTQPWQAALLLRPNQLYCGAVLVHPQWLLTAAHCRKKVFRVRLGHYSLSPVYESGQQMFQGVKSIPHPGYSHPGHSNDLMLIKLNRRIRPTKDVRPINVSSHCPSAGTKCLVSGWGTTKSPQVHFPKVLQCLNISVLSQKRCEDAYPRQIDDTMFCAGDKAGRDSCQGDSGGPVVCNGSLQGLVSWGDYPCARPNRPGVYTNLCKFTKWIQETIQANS
# Assay: Kallikrein (KLK) 5 enzymatic assay (Boc-VPR-AMC fluorogenic substrate)
# Format: biochemical
# Conditions: recombinant human KLK5 0.1 μg/well, Boc-VPR-AMC 100 μM, pH 7.5, room temperature, 1% DMSO; tested a minimum of three times
# Text: Kallikrein-5 (KLK5) is a member of the serine protease family of proteolytic enzymes, confirmed to have trypsin-like activity (Michael I P, et al. Biochemical and enzymatic characterization of human kallikrein 5 (hK5), a novel serine protease potentially involved in cancer progression (J. Biol. Chem. 2005 Apr. 15; 280 (15): 14628-35). Boc-VPR-AMC is a fluorogenic peptide substrate composed of the short peptide chain, Valine-Proline-Arginine (VPR) and the fluorophore, 7-amino-4-methylcoumarin (AMC). KLK5 is able to cleave the fluorogenic peptide substrate Boc-VPR-AMC, releasing the AMC fluorophore, which causes a fluorescent emission in proportion with the enzymatic activity of KLK5. The KLK5 enzymatic activity is monitored by measuring fluorescent emission at wavelengths of 380 nm (excitation) and 460 nm (emission).
# The IC50 value of compounds against KLK5 (i.e., the concentration of the compound that inhibits 50% of the enzymatic activity) was calculated according to the procedure reported by R&D systems (Recombinant human KLK5, Catalog Number: 1108-SE), with the exception the pH of the assay was modified from 8.0 to 7.5. Specifically, recombinant human KLK5 (Novoprotein Catalog #C415 or R&D systems Catalog #1108-SE) and fluorogenic peptide Boc-VPR-AMC substrate (R&D Catalog #ES011) were each separately diluted in assay buffer (0.1 M NaH2PO4 buffer, pH 7.5). The compounds of the disclosure were dissolved in DMSO at a concentration of 10 mM. A portion of this stock solution was added to the recombinant human KLK5 solution to provide a desired concentration of the compounds and the mixture was incubated at room temperature. The reaction was initiated by the addition of the fluorogenic peptide substrate at room temperature. The final concentration of recombinant human KLK5 was 0.1 μg/well and the final concentration of the fluorogenic substrate was 100 μM (final volume of 100 μL, 1% DMSO). The assays were performed in 96 well F16 Black Maxisorp Plate (Nunc Catalog #475515). Controls included assay buffer alone and enzyme solutions to which DMSO was added. The reaction rates were measured spectrophotometrically by excitation at 380 nm and emission at 460 nm on a Biotek Synergy H1 plate reader.
# The reaction rate for enzyme alone was compared to the reaction rate of enzyme in the presence of compound and the percent inhibition was calculated as shown below:
# Percent Inhibition=[Rate with inhibitor/Rate without inhibitor)]×100
# An IC50 indicates a compound concentration that inhibits 50% of the enzymatic activity. Compounds were tested a minimum of three times.
row,Structure (SMILES),IC50 [µM]
1,"CC(C)n1nc(COc2ccccc2CC(=O)O)c2cc(-c3cccc4c(N)nn(C)c34)ccc21 [Compound 54c, 2-(2-((3′-amino-1-isopropyl-1′-methyl-1H, 1′H-[5,7′-biindazol]-3-yl)methoxy)phenyl)acetic acid]",> 10
2,"CC(C)n1nc(COc2ccccc2CC(=O)O)c2cc(-c3ccc4ncc(N)n4n3)ccc21 [Compound 55c, 2-(2-((5-(3-aminoimidazo[1,2-b]pyridazin-6-yl)-1-isopropyl-1H-indazol-3-yl)methoxy)phenyl)acetic acid]",> 10
3,"CC(C)n1nc(COc2ccccc2CC(=O)O)c2cc(-c3cccc4cnc(N)cc34)ccc21 [Compound 56c, 2-(2-((5-(3-aminoisoquinolin-5-yl)-1-isopropyl-1H-indazol-3-yl)methoxy)phenyl)acetic acid]",> 10
4,"Cn1nc(COc2ccccc2CC(=O)O)c2cc(-c3ccc4ccnc(N)c4c3)ccc21 [Compound 57b, 2-(2-((5-(1-aminoisoquinolin-7-yl)-1-methyl-1H-indazol-3-yl)methoxy)phenyl)acetic acid]",< 1
5,"Cn1nc(COc2ccccc2CC(=O)O)c2cc(-c3cccc4c(N)nccc34)ccc21 [Compound 58b, 2-(2-((5-(1-aminoisoquinolin-5-yl)-1-methyl-1H-indazol-3-yl)methoxy)phenyl)acetic acid]",< 1
6,"N=C(N)c1cccc(-c2ccc3c(c2)c(COc2ccccc2CC(=O)O)nn3C2CC2)c1 [Compound 59d, 2-(2-((5-(3-carbamimidoylphenyl)-1-cyclopropyl-1H-indazol-3-yl)methoxy)phenyl)acetic acid]",< 1
7,"Nc1nccc2ccc(-c3ccc4c(c3)c(COc3ccccc3CC(=O)O)nn4C3CC3)cc12 [Compound 60b, 2-(2-((5-(1-aminoisoquinolin-7-yl)-1-cyclopropyl-1H-indazol-3-yl)methoxy)phenyl)acetic acid]",< 1
8,"COc1ccc(CC(=O)O)c(OCc2nn(C(C)C)c3ccc(-c4ccc5ccnc(N)c5c4)cc23)c1 [Compound 61b, 2-(2-((5-(1-aminoisoquinolin-7-yl)-1-isopropyl-1H-indazol-3-yl)methoxy)-4-methoxyphenyl)acetic acid]",< 1
9,"Cc1ccc(CC(=O)O)c(OCc2nn(C(C)C)c3ccc(-c4ccc5ccnc(N)c5c4)cc23)c1 [Compound 62c, 2-(2-((5-(1-aminoisoquinolin-7-yl)-1-isopropyl-1H-indazol-3-yl)methoxy)-4-methylphenyl)acetic acid]",< 1
10,"CC(C)n1nc(C(=O)Nc2ccccc2CC(=O)O)c2cc(-c3ccc4ccnc(N)c4c3)ccc21 [Compound 63d, 2-(2-(5-(1-aminoisoquinolin-7-yl)-1-isopropyl-1H-indazole-3-carboxamido)phenyl)acetic acid]",1 to 10
11,"CC(C)n1nc(COc2ccccc2CC(=O)O)c2cc(-c3cccc(C(=N)N)c3F)ccc21 [Compound 64d, 2-(2-((5-(3-carbamimidoyl-2-fluorophenyl)-1-isopropyl-1H-indazol-3-yl)methoxy)phenyl)acetic acid]",< 1
12,"Nc1nccc2c(-c3ccc4c(c3)c(COc3ccccc3CC(=O)O)nn4C3CC3)cccc12 [Compound 65b, 2-(2-((5-(1-aminoisoquinolin-5-yl)-1-cyclopropyl-1H-indazol-3-yl)methoxy)phenyl)acetic acid]",< 1
13,"COc1ccc(CC(=O)O)c(OCc2nn(C3CC3)c3ccc(-c4ccc5ccnc(N)c5c4)cc23)c1 [Compound 66e, 2-(2-((5-(1-aminoisoquinolin-7-yl)-1-cyclopropyl-1H-indazol-3-yl)methoxy)-4-methoxyphenyl)acetic acid]",< 1
14,"CC(C)n1nc(COc2ccccc2CC(=O)O)c2cc(-c3ccc4c(N)n[nH]c4c3)ccc21 [Compound 67c, 2-(2-((3′-amino-1-isopropyl-1H, 1′H-[5,6′-biindazol]-3-yl)methoxy)phenyl)acetic acid]",> 10

# Reference: patent US20240239752A1, “BICYCLIC HETEROAROMATIC INHIBITORS OF KLK5” (BioCryst Pharmaceuticals, Inc., priority 2021, published 2024)
